Holding throughout (format): cell-based
Test [1] concerns Salmonella enteritidis (PEG-10-3-58). As to the kind of experiment: EN-ISO standard test (ISO 20776-1), MIC. The procedure: (§1) Furthermore, compounds were tested against the following bacteria
Salmonella enteritidis (PEG-10-3-58),
(§2) according to EN-ISO standard (ISO 20776-1: 2006. Clinical laboratory testing and in vitro diagnostic test systems—Susceptibility testing of infectious agents and evaluation of performance of antimicrobial susceptibility test devices—Part 1:Reference method for testing the in vitro activity of antimicrobial agents against rapidly growing aerobic bacteria involved in infectious diseases; German version EN ISO 20776-1:2006. Beuth-Verlag, Berlin).

Test [2] relates to Escherichia coli albi-res (Montpellier). Briefly: Test agar plates (disc diffusion), diameter of inhibition area. The following applies: 18 h, read-out: diameter of inhibition, Escherichia coli albi-res (Montpellier). The procedure: (§3) The dry compounds were dissolved in DMSO (1 mg/ml) and the so obtained stock solution was diluted with sterilized Millipore water 1:10 and 1:100
(§4) 20 μl of cryo stock of each strain were inoculated to 20 ml of Mueller-Hinton medium and grown overnight at 30° C. or 37° C. on a vertical shaker with 160 rpm. The inoculum for the test was adjusted by the 0.5 McFarland Standard (OD625 from 0.08 to 0.1)
Escherichia coli albi-res (Montpellier) [gram. Neg.] Medium: MHB/37° C.
(§5) Every plate is prepared by pouring 10 ml Mueller-Hinton agar into standard petri dishes (diam 94 mm). The so obtained Mueller-Hinton plates are overlayed with 4 ml Mueller-Hinton soft agar containing 100 μl suspension of the test strain.
(§6) After the soft agar turned solid, sterile susceptibility test discs were circular placed on the agar and on every test disc 10 μl compound was added. Each concentration is tested in triplicate. The agar dishes were incubated for 18 hours at a temperature of 30° C. or 37° C. Results are obtained by measuring the diameter of inhibition area around each test disc.
Background: A growth-free zone around the sample is the usual read-out of agar diffusion tests.

Test [3] relates to Micrococcus luteus DSM1790. The test is described as above. The conditions noted are these: Micrococcus luteus, DSM1790, 18 h, read-out: diameter of inhibition, Micrococcus luteus DSM1790. The procedure:
as §3, §4
Micrococcus luteus DSM1790 [gram. Pos.] Medium: MHB/37° C.
as §5, §6

A further test concerns Bacillus subtilis DSM10. The description is as above. The conditions noted are these: Bacillus subtilis, DSM10, 18 h, read-out: diameter of inhibition, Bacillus subtilis DSM10. The procedure: as §3, §4
Bacillus subtilis DSM10 [gram. Pos.] Medium: MHB/30° C.
as §5, §6

For test [4], the system named is Staphylococcus aureus (PEG 10-38-22). Briefly: EN-ISO standard test (ISO 20776-1), MIC. The procedure: as §1, §2
For test [5], the system named is Staphylococcus aureus (ATCC 29213). As to the kind of experiment: EN-ISO standard test (ISO 20776-1), MIC. The procedure: as §1, §2
For test [6], the system named is Escherichia coli (ATCC 25922, 100-2-49 and 100-2-56). As to the kind of experiment: EN-ISO standard test (ISO 20776-1), MIC. The procedure: as §1, §2
Test [7] deals with Staphylococcus aureus DSM 2569. Briefly: Test agar plates (disc diffusion), diameter of inhibition area. The following applies: DSM2569, 18 h, read-out: diameter of inhibition, Staphylococcus aureus DSM 2569. The procedure: as §3, §4
Staphylococcus aureus DSM 2569 [gram. Pos.] Medium: MHB/37° C.
as §5, §6

For a further test, the system named is Escherichia coli DH5α. The description is as above. The conditions noted are these: 18 h, read-out: diameter of inhibition, Escherichia coli DH5α. The procedure:
as §3, §4
Escherichia coli DH5α [gram. Neg.] Medium: MHB/37° C.
as §5, §6

Test [8] relates to Pseudomonas aeruginosa (PEG-10-2-61). As to the kind of experiment: EN-ISO standard test (ISO 20776-1), MIC. The procedure: as §1
(§7) Pseudomonas aeruginosa (ATCC 27853 and PEG-10-2-61)
as §2

The test system of test [9] is Pseudomonas aeruginosa (ATCC 27853). Briefly: EN-ISO standard test (ISO 20776-1), MIC. The procedure: as §1, §7, §2
Test [10] deals with Pseudomonas aeruginosa DSM1117. Briefly: Test agar plates (disc diffusion), diameter of inhibition area. The conditions noted are these: DSM1117, 18 h, read-out: diameter of inhibition, Pseudomonas aeruginosa DSM1117. The procedure: as §3, §4
Pseudomonas aeruginosa DSM1117 [gram. Neg.] Medium: MHB/37° C.
as §5, §6

The mark [11] stands for this setting: test agar plates, active substance 1 mg/ml, more than 1 cm or more than 2 cm.
Where [12] appears, read: test agar plates, active substance 1 mg/ml, "more than 1 cm and more than 2 cm" [sic].
The mark [13] stands for this setting: test agar plates, active substance 1 mg/ml, more than 1 cm or more than 3.9 cm [sic].

The structures appear in SMILES notation. Read-outs that look alike come from different tables or passages of the source.

In the case of `COc1c(NC(=O)c2ccc(NC(=O)c3ccc(NC(=O)C(CC#N)NC(=O)c4ccc(NC(=O)/C(C)=C/c5ccc(F)cc5)cc4)cc3)c(OC)c2O)ccc(C(=O)O)c1O` (stereo not drawn) [Compound 1], the “MIC values, in words” value in [1], in test [4], in [5], in [8] and in [9] was “good to very good” each time. The zone of inhibition at 1000 µg/mL (in [2] (setting [11]); in test [3] (setting [12]); with Bacillus subtilis DSM10 (setting [13]); in test [7] (setting [12]); in the test with Escherichia coli DH5α (setting [11]); in [10] (setting [11])) was above 10 mm in each case. Moreover, the “MIC values (minimal inhibitory concentration), in words” value in test [6] is listed as “good to very good”.

As for `COc1c(NC(=O)c2ccc(NC(=O)c3ccc(NC(=O)C(CC#N)NC(=O)c4ccc(NC(=O)/C=C/c5ccc6c(c5)OCO6)cc4)cc3)c(OC)c2O)ccc(C(=O)O)c1O` (stereo not drawn) [Compound 5], the “MIC values, in words” value in [1], in test [4], in [5], in [8] and in [9] was “good to very good” each time. In addition, the zone of inhibition at 1000 µg/mL (in test [2] (setting [11]); in test [3] (setting [12]); in the test on Bacillus subtilis DSM10 (setting [13]); in test [7] (setting [12]); in the test with Escherichia coli DH5α (setting [11]); in [10] (setting [11])) was above 10 mm throughout. Further, the “MIC values (minimal inhibitory concentration), in words” value in test [6] was “good to very good”.

Take `COc1c(NC(=O)c2ccc(NC(=O)c3ccc(NC(=O)C(CC#N)NC(=O)c4ccc(NC(=O)c5ccc(C#N)cc5)cc4)cc3)c(OC)c2O)ccc(C(=O)O)c1O` (stereo not drawn) [Compound 11]: the zone of inhibition at 1000 µg/mL (in test [2] (setting [11]); in [3] (setting [12]); with Bacillus subtilis DSM10 (setting [13]); in [7] (setting [12]); in the test with Escherichia coli DH5α (setting [11]); in [10] (setting [11])) was above 10 mm in each case.

In the case of `COc1c(NC(=O)c2ccc(NC(=O)c3ccc(NC(=O)C(CC#N)NC(=O)c4ccc(NC(=O)c5cccc(C(F)(F)F)c5)cc4)cc3)c(OC)c2O)ccc(C(=O)O)c1O` (stereo not drawn) [Compound 12], the zone of inhibition at 1000 µg/mL (in test [2] (setting [11]); in [3] (setting [12]); in the test with Bacillus subtilis DSM10 (setting [13]); in test [7] (setting [12]); in the test with Escherichia coli DH5α (setting [11]); in test [10] (setting [11])) was above 10 mm in each case.

In the case of `COc1c(NC(=O)c2ccc(NC(=O)c3ccc(NC(=O)C(CC#N)NC(=O)c4ccc(NC(=O)c5cscn5)cc4)cc3)c(OC)c2O)ccc(C(=O)O)c1O` (stereo not drawn) [Compound 16], the “MIC values, in words” value in test [1] is on record as “good to very good”. Besides, the zone of inhibition at 1000 µg/mL (in test [2] (setting [11]); in test [3] (setting [12]); with Bacillus subtilis DSM10 (setting [13]); in test [7] (setting [12]); with Escherichia coli DH5α (setting [11])) was above 10 mm each time. The “MIC values (minimal inhibitory concentration), in words” value in test [6] is “good to very good”.

On to `COc1c(NC(=O)c2ccc(NC(=O)c3ccc(NC(=O)C(CC#N)NC(=O)c4ccc(NC(=O)COc5ccccc5)cc4)cc3)c(OC)c2O)ccc(C(=O)O)c1O` (stereo not drawn) [Compound 30], for which the “MIC values, in words” value in [1], in test [5] and in [9] was “good to very good” throughout. Further, the zone of inhibition at 1000 µg/mL (in test [2]; in test [3]; in the test on Bacillus subtilis DSM10; in test [7]; in the test with Escherichia coli DH5α; in test [10]) was above 10 mm in each case. The “MIC values (minimal inhibitory concentration), in words” value in test [6] is “good to very good”.

In the case of `COc1c(NC(=O)c2ccc(NC(=O)c3ccc(NC(=O)C(CC#N)NC(=O)c4ccc(NC(=O)C5CCCCC5)cc4)cc3)c(OC)c2O)ccc(C(=O)O)c1O` (stereo not drawn) [Compound 35], the “MIC values, in words” value in test [1] and in test [9] was “good to very good” each time. Moreover, the zone of inhibition at 1000 µg/mL (in test [2]; in the test with Bacillus subtilis DSM10 (setting [13]); in test [7] (setting [12]); with Escherichia coli DH5α (setting [11]); in test [10] (setting [11])) was above 10 mm each time. Moreover, the “MIC values (minimal inhibitory concentration), in words” value in test [6] is listed as “good to very good”.

With `COc1c(NC(=O)c2ccc(NC(=O)c3ccc(NC(=O)C(CC#N)NC(=O)c4ccc(NC(=O)C5C6CC7CC(C6)CC5C7)cc4)cc3)c(OC)c2O)ccc(C(=O)O)c1O` (stereo not drawn) [Compound 36], the “MIC values, in words” value in [1], in [4], in [5], in test [8] and in test [9] was “good to very good” each time. Moreover, the zone of inhibition at 1000 µg/mL (in test [2]; in test [3] (setting [12]); in the test with Bacillus subtilis DSM10 (setting [13]); in test [7] (setting [12]); in the test on Escherichia coli DH5α (setting [11]); in test [10] (setting [11])) was above 10 mm in each case. For the same compound, the “MIC values (minimal inhibitory concentration), in words” value in [6] was “good to very good”.

For the compound `COc1c(NC(=O)c2ccc(NC(=O)c3ccc(NC(=O)C(CC#N)NC(=O)c4ccc(NC(=O)Nc5ccccc5)cc4)cc3)c(OC)c2O)ccc(C(=O)O)c1O` (stereo not drawn) [Compound 43], the “MIC values, in words” value in test [1] is given as “good to very good”. Also, the zone of inhibition at 1000 µg/mL (in [2]; in the test on Bacillus subtilis DSM10 (setting [13]); in test [10] (setting [11])) was above 10 mm throughout. In addition, the “MIC values (minimal inhibitory concentration), in words” value in test [6] is “good to very good”.

These data come from patent US10308595B2, “Albicidin derivatives, their use and synthesis” (priority 2013, dated 2019).
